The text below walks through data of ChEMBL document CHEMBL2331380, “Evaluation of potential Myt1 kinase inhibitors by TR-FRET based binding assay” (Eur J Med Chem, 2013).

A short description of assay [1]: Binding affinity to human full-length His-tagged Myt1 kinase expressed in HEK293 cells at 30 ug/ml by TR-FRET based binding assay.
Assay [2] in a line: Binding affinity to human full-length His-tagged Myt1 kinase expressed in HEK293 cells at 3 ug/ml by TR-FRET based binding assay. (In general: TR-FRET usually uses a lanthanide donor and a delayed reading to cut background.)

With `CCCCCCCCCCCCCCCC(=O)NC[C@H]1O[C@@H](OC[C@@H](COC(=O)CCCCCCCCCCCCCCC)OC(=O)CCCCCCCCCCCCCCC)[C@H](O)[C@@H](O)[C@H]1O`, the Activity in assay [1] and in assay [2] was less than 5% throughout.

Regarding `CCCCCCCCCCCCCCCC(=O)NC[C@H]1O[C@H](OC[C@@H](COC(=O)CCCCCCCCCCCCCCC)OC(=O)CCCCCCCCCCCCCCC)[C@H](O)[C@@H](O)[C@H]1O`, the Activity in assay [1] and in assay [2] was less than 5% in each case.

For `CCCCCCCCCCCCCCCC(=O)NC[C@H]1O[C@H](OC[C@@H](COC(=O)CCCCCCCCCCCCCCC)OC(=O)CCCCCCCCCCCCCCC)[C@@H](O)[C@@H](O)[C@@H]1O`, the Activity in assay [1] and in assay [2] was less than 5% each time.

In the case of `CCCCCCCCCCCCCCCC(=O)NC[C@H]1O[C@H](OC[C@@H](COC(=O)CCCCCCCCCCCCCCC)OC(=O)CCCCCCCCCCCCCCC)[C@H](O)[C@@H](O)[C@@H]1O`, the Activity in assay [1] and in assay [2] was less than 5% in each case.

Turning to `CCCCCCCC(=O)NC[C@H]1O[C@@H](OC[C@@H](COC(=O)CCCCCCC)OC(=O)CCCCCCC)[C@H](O)[C@@H](O)[C@@H]1O`, the Activity in assay [1] and in assay [2] was less than 5% throughout.

`CCCCCCCCCCCCCCCC(=O)NC[C@H]1O[C@@H](OC[C@@H](COC(=O)CCCCCCCCCCCCCCC)OC(=O)CCCCCCCCCCCCCCC)[C@@H](O)[C@@H](O)[C@@H]1O`: the Activity was 7.53% in assay [1] and less than 5% in assay [2].

Take `CCCCCCCCCCCCCCCC(=O)NC[C@H]1O[C@@H](OC[C@@H](COC(=O)CCCCCCCCCCCCCCC)OC(=O)CCCCCCCCCCCCCCC)[C@H](O)[C@@H](O)[C@@H]1O`: the Activity in assay [1] and in assay [2] was less than 5% throughout.
